We go through one compound from paper PMC12049818, “Identification of NUV-244 as a PNPLA3 I148M degrading small molecule” (iScience, 2025).

SMILES strings stand for the structures.

For one series, the target named is T1, PNPLA3 I148M (Homo sapiens, UniProt Q9NST1, I148M).
T1 sequence (Q9NST1 1-481 I148M): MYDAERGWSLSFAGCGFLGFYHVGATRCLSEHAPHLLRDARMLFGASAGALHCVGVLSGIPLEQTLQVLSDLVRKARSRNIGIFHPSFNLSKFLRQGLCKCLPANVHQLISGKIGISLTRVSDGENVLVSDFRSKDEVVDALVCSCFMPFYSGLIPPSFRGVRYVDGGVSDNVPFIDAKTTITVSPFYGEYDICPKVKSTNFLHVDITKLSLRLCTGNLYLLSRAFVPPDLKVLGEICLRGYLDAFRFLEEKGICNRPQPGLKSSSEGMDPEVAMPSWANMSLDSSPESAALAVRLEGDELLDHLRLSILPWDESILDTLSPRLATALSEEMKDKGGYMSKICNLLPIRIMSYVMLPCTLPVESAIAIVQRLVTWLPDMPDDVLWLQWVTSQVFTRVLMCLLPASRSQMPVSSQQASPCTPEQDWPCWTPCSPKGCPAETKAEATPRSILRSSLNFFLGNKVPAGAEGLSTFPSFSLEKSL
Nature of the series: Western blot anti-PNPLA3, Huh7 PNPLA3 I148M. Set-up: host or cells: Huh7. The series is classed as cell-based. Conditions: 5µM; 24h; two independent Western Blots, Mean +/- Stdev. The protocol:
For SDS-PAGE and subsequent western blotting cells were harvested in 1x lysis buffer (50 mM Tris-Cl, pH 7.5, 150 mM NaCl, 1 mM EDTA, 1% Triton X-100) supplemented with complete mini protease inhibitor cocktail (Roche). Total protein concentration of samples was determined with a Bicinchoninic Acid (BCA) protein assay. Cell lysates were boiled for 10 min at 99°C with 1x NuPAGE LDS Sample Buffer and loaded onto a 4-12% Tris-Glycine SDS-PAGE gel. For immunoblotting proteins were transferred to a nitrocellulose membrane (0.2 μm pore size, Schleicher & Schuell) and blocked with Intercept (PBS) Blocking buffer (Licor), incubated with primary antibodies anti-PNPLA3 (1:500, C-8 Santa Cruz, SC-390252), anti-PNPLA3 (1:1000, Millipore, MABS2174) and anti-HSP90 (1:1000, Cell Signaling, #4877), and subsequently incubated with secondary antibodies IRDye 680 or IRDye 800 (1:2000; LI-COR Biosciences). Infrared signal was detected using the Odyssey imaging system (Licor). […]
a. Huh7, PNPLA3 I148M b. Huh7, PNPLA3 I148M-tagRFP […]
control NUV-244 control NUV-244
Supplemental Fig. 9: Western Blot NUV-244 a. […] PNPLA3 bands at 53kDa (unmodified in a.) or 80 kDa (PNPLA3 I148M-tagRFP) were quantified (signal above local background, normalized to loading control using LICOR Odyssey CLx / Image Studio) on two independent Western Blots and percent of intensity compared to DMSO controls calculated (Mean +/ - Stdev). […]
For orientation: Immunoblotting shows a protein as a band on a membrane.

Another series deals with T2, PNPLA2 (Homo sapiens, UniProt Q96AD5).
T2 sequence (Q96AD5 1-504): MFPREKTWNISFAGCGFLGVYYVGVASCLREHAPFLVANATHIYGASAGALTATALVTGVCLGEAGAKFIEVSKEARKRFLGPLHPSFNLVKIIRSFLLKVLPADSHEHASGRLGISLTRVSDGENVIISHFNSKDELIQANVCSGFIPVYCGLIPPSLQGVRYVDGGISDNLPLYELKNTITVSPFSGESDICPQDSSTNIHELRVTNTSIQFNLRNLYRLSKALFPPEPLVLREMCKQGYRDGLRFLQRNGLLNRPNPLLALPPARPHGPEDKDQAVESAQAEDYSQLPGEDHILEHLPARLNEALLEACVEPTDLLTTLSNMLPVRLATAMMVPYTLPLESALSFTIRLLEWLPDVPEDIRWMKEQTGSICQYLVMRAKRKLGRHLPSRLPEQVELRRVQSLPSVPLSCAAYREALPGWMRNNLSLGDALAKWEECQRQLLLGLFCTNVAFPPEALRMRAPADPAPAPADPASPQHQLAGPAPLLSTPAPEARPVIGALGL
The series can be described thus: nanoDSF thermal shift, PNPLA2 protein. The class given is binding. Conditions: ligand 25 μM. The source says: To investigate the mode of action of NUV-244, we evaluated its direct binding to the PNPLA3 I148M protein using nano differential scanning fluorimetry (nanoDSF). In this assay, compounds that bind to a target protein can lead to thermal stabilization, preventing protein denaturation, which is reflected in a shift of the protein melting curve.
Full-length wild-type PNPLA3 (Q9NST1), mutant PNPLA3 (I148M), and PNPLA2 (Q96AD5) were cloned into the pVL1393 vector with an N-terminal Flag-Tag. Proteins were expressed in SF9 cells infected at a multiplicity of infection (MOI) of 1 for 72 hours. Protein purification was performed using a two-step process. The first step involved affinity purification using M2 anti-Flag agarose beads. This was followed by gel filtration chromatography using a Superdex 200 column. Thermal melting experiments were carried out using a Prometheus NT.48 instrument (NanoTemper Technologies). Proteins were prepared in 20 mM Tris-HCl pH 7.4, 100 mM NaCl, 5 % Glycerol, 2 mM DTT and 0.2 mg/mL was used as a final concentration in 50 μL volume. For binding experiments, ligands were added to the mixture at a final concentration of 25 μM, DMSO was used as control. […] The intrinsic protein fluorescence at 330 and 350 nm was recorded. Data were analysed using Prometheus NT.48 software. Thermal shifts (ΔTm) were calculated, and Z-scores greater than 6 indicated robust stabilization. […]
For orientation: In DSF a fluorescence change marks the thermal transition of the protein.

A further series concerns Hep3B cells. Nature of the series: Incucyte growth curves, Hep3B. The class given is cell-based, human. Conditions: 1μM or 5μM; compared to DMSO. The protocol:
Huh7, Huh7 PNPLA3 I148M, Huh7 PNPLA3, Hep3b and LX-2 cells were seeded at a concentration of 1000 cells/well in 60 μl of growth medium on 384-well microtiter plates (Revvity, Waltham, MA, USA, PhenoPlate 384-well microplate, #6057308) and stored in a 37°C incubator with 5% CO2 and 95% humidity overnight. Next day cells were treated with DMSO as control (1% final concentration) or compound (1μM or 5μM final concentration) and cell density was recorded in the Incucyte® life cell imager (Sartorius, Göttingen, Germany) every 4 hours over a period of 5 days. Growth curves were generated by monitoring confluence over time. Proliferative capacity of PNPLA3 I148M-expressing cells was compared to control cells, and the restoration of proliferative fitness was analyzed.

On to `Cc1cccc(Cc2nc(C)c(C(=O)Nc3cc(O)ccc3Cl)s2)c1` [NUV-244], for which, on PNPLA3 I148M, the “PNPLA3 band, percent of intensity compared to DMSO controls” value is reported as 67+/-12%. The “effect on melting curve of PNPLA2 protein” value on PNPLA2 is “did not affect the melting curve”. For the same compound, in the series with Hep3B cells, the “effect on proliferative capacity, Hep3B” value is on record as “no effects”.
